Values after ≈ are worked out from the molar mass of the structure shown.
Legend:
Assay in all cases: In vitro antibacterial activity, microtitration dilution method
Assay type in all cases: cell-based
[1] = test system: Enterobacter cloacae MA 2646; conditions: MA2646, read-out: Minimal Inhibitory Concentration MIC
Source text: (§1) The compounds of the invention display anti-bacterial activity when tested by the microtitration dilution method as described in Heifetz, et al, Antimicr. Agents & Chemoth., 6, 124 (1974), which is incorporated herein by reference and illustrated in the following table.

Escherichia coli Vogel = conditions: read-out: Minimal Inhibitory Concentration MIC
Source text: as §1

[2] = test system: Klebsiella pneumoniae MGH-2; conditions: MGH2, read-out: Minimal Inhibitory Concentration MIC
Source text: as §1

Proteus rettgeri M 1771 = conditions: Providencia rettgeri, M1771, read-out: Minimal Inhibitory Concentration MIC
Source text: as §1

[3] = test system: Pseudomonas aeruginosa UI-18; conditions: UI18, read-out: Minimal Inhibitory Concentration MIC
Source text: as §1

[4] = test system: Staphylococcus aureus H 228; conditions: H228, read-out: Minimal Inhibitory Concentration MIC
Source text: as §1

[5] = test system: Staphylococcus aureus UC-76; conditions: UC76, read-out: Minimal Inhibitory Concentration MIC
Source text: as §1

[6] = test system: Streptococcus faecalis MGH-2; conditions: Enterococcus faecalis, MGH2, read-out: Minimal Inhibitory Concentration MIC
Source text: as §1

[7] = test system: Streptococcus pneumoniae SV-1; conditions: SV1, read-out: Minimal Inhibitory Concentration MIC
Source text: as §1

[8] = test system: Streptococcus pyogenes C-203; conditions: C203, read-out: Minimal Inhibitory Concentration MIC
Source text: as §1

| MIC [1] | MIC (Escherichia coli Vogel) | MIC [2] | MIC (Proteus rettgeri M 1771) | MIC [3] | MIC [4] | MIC [5] | MIC [6] | MIC [7] | MIC [8] | Compound |
| --- | --- | --- | --- | --- | --- | --- | --- | --- | --- | --- |
| 0.4 µg/mL (≈ 1 µM) | 0.2 µg/mL (≈ 0.501 µM) | 0.8 µg/mL (≈ 2 µM) | 1.6 µg/mL (≈ 4.01 µM) | 1.6 µg/mL (≈ 4.01 µM) | 0.2 µg/mL (≈ 0.501 µM) | 0.1 µg/mL (≈ 0.25 µM) | 0.2 µg/mL (≈ 0.501 µM) | 0.2 µg/mL (≈ 0.501 µM) | 0.2 µg/mL (≈ 0.501 µM) | NCC1CCN(c2c(F)cc3c(=O)c(C(=O)O)cn(-c4ccccc4)c3c2F)C1 (stereo not drawn) [Ex. 4, 7-[3-(Aminomethyl)-1-pyrrolidinyl]-6,8-difluoro-1,4-dihydro-4-oxo-1-phenyl-3-quinoline carboxylic acid] |
| 0.8 µg/mL (≈ 1.8 µM) | 0.8 µg/mL (≈ 1.8 µM) | 1.6 µg/mL (≈ 3.59 µM) | 1.6 µg/mL (≈ 3.59 µM) | 1.6 µg/mL (≈ 3.59 µM) | 0.1 µg/mL (≈ 0.224 µM) | 0.2 µg/mL (≈ 0.449 µM) | 0.2 µg/mL (≈ 0.449 µM) | 0.4 µg/mL (≈ 0.898 µM) | 0.4 µg/mL (≈ 0.898 µM) | CCNCC1CCN(c2c(F)cc3c(=O)c(C(=O)O)cn(-c4ccc(F)cc4)c3c2F)C1 (stereo not drawn) [Ex. 1] |
| 1.6 µg/mL (≈ 3.74 µM) | 1.6 µg/mL (≈ 3.74 µM) | 1.6 µg/mL (≈ 3.74 µM) | 6.3 µg/mL (≈ 14.7 µM) | 6.3 µg/mL (≈ 14.7 µM) | 0.8 µg/mL (≈ 1.87 µM) | 0.2 µg/mL (≈ 0.468 µM) | 0.8 µg/mL (≈ 1.87 µM) | 1.6 µg/mL (≈ 3.74 µM) | 1.6 µg/mL (≈ 3.74 µM) | CCNCC1CCN(c2c(F)cc3c(=O)c(C(=O)O)cn(-c4ccccc4)c3c2F)C1 (stereo not drawn) [Ex. 3, 7-[3-[(Ethylamino)methyl]-1-pyrrolidinyl]-6,8-difluoro-1,4-dihydro-4-oxo-1-phenyl-3-quinolinecarboxylic acid] |

— US4617308A, “7-substituted amino-1-aryl-6,8-difluoro-1,4-dihydro-4-oxo-3-quinolinecarboxylic acids and derivatives thereof as antibacterial agents” (Warner-Lambert Company, priority 1985, dated 1986)
